Earlier results in patent US7056538B2, “Disinfectant solution based on sodium hypochlorite, and process for preparing it” (Aziende Chimiche Riunite Angelini Francesco A.C.R.A.F. …, priority 2001, dated 2006).

Conditions: 25° C.

dissociation constant pKa: 7.49
SMILES: OCl [hypochlorous acid]
